Results as given in ChEMBL document CHEMBL2380236, “Core refinement toward permeable β-secretase (BACE-1) inhibitors with low hERG activity” (J Med Chem, 2013).

How the values were obtained:
in vitro = details: human, Caco-2, pH 7.4, Papp
physchem [1] = test: physchem
physchem [2] = test: physchem; remark: listed apart in the source
in vivo [3] = details: C57BL/6, mouse, brain and plasma, iv
in vivo [4] = details: C57BL/6, mouse, plasma, iv
in vivo [5] = details: C57BL/6, mouse, brain, iv
in vivo [6] = details: C57BL/6, mouse, brain and plasma, iv; remark: listed apart in the source
in vivo [7] = details: C57BL/6, mouse, brain and plasma, po
in vivo [8] = details: C57BL/6, mouse, plasma, po
in vivo [9] = details: C57BL/6, mouse, brain, po
in vivo [10] = details: C57BL/6, mouse, brain and plasma, po; remark: listed apart in the source

What does the source list for `COc1cccc(-c2cccc(C3(C)N=C(N)CCS3)c2)c1` (stereo not given)?
Papp A→B at 10 µM (in vitro): 5.2 ×10⁻⁶ cm/s; pKa (physchem [1]): 9.3; chromatographic logD (physchem [2]): 2.5

With `CC1(c2cccc(-c3cncnc3)c2)N=C(N)c2ccccc2O1` (stereo not given) as the compound, how does the Papp A→B at 10 µM (in vitro) read?
The Papp A→B at 10 µM was 31 ×10⁻⁶ cm/s.

What about the pKa (physchem [1]) of the same compound?
Its pKa is 8.1.

What about the chromatographic logD (physchem [2]) of the same compound?
Its chromatographic logD is 1.2.

With `COc1cccc(-c2cccc(C3(C)CSCC(N)=N3)c2)c1` (stereo not given) as the compound, how does the pKa (physchem [1]) read?
The pKa was 10.5.

With `COc1cccc(-c2cccc(C3(C)N=C(N)CN3C(C)=O)c2)c1` (stereo not given) as the compound, how does the Papp A→B at 10 µM (in vitro) read?
Its Papp A→B at 10 µM is 16 ×10⁻⁶ cm/s.

And the pKa (physchem [1])?
The pKa was 6.5.

And the chromatographic logD (physchem [2])?
Its chromatographic logD is 1.4.

With `C[C@]1(c2cccc(-c3cncc(F)c3)c2)N=C(N)[C@@H]2CCCCN21` (relative stereo) as the compound, how does the chromatographic logD (physchem [2]) read?
The chromatographic logD was 1.5.

With `CC1(c2cccc(-c3cncnc3)c2)N=C(N)c2ccccc2S1` (stereo not given) as the compound, how does the Papp A→B at 10 µM (in vitro) read?
Its Papp A→B at 10 µM is 39 ×10⁻⁶ cm/s.

What about the pKa (physchem [1]) of the same compound?
Its pKa is 8.3.

What about the chromatographic logD (physchem [2]) of the same compound?
Its chromatographic logD is 1.7.

Which Papp A→B at 10 µM (in vitro) does the source give for `COc1ccc(C2(c3cccc(-c4cncnc4)c3)CCC(N)=N2)cc1` (stereo not given) here?
The Papp A→B at 10 µM was < 0.3 ×10⁻⁶ cm/s.

And the pKa (physchem [1])?
The pKa was 10.

And the chromatographic logD (physchem [2])?
Its chromatographic logD is 0.9.

Which Kp uu at […] (in vivo [3]) does the source give for `COc1ccc(C2(c3cccc(-c4cccnc4)c3)N=C(N)CS2)cc1` (stereo not given) here?
The Kp uu at […] was 1.3.

And the fraction unbound at […] (in vivo [4])?
The fraction unbound at […] was 0.007.

And the fraction unbound at […] (in vivo [5])?
Its fraction unbound at […] is 0.01.

What about the Kp at […] (in vivo [6]) of the same compound?
The Kp at […] was 0.9.

What about the Papp A→B at 10 µM (in vitro) of the same compound?
The Papp A→B at 10 µM was 19 ×10⁻⁶ cm/s.

What about the pKa (physchem [1]) of the same compound?
Its pKa is 6.2.

What about the chromatographic logD (physchem [2]) of the same compound?
Its chromatographic logD is 2.9.

Which Papp A→B at 10 µM (in vitro) does the source give for `CC1(c2cccc(-c3cncnc3)c2)N=C(N)c2c(F)cccc2O1` (stereo not given) here?
The Papp A→B at 10 µM was 39 ×10⁻⁶ cm/s.

What about the pKa (physchem [1]) of the same compound?
The pKa was 6.9.

And the chromatographic logD (physchem [2])?
Its chromatographic logD is 1.6.

Which results are given for `C[C@]1(c2cccc(-c3cncc(F)c3)c2)N=C(N)[C@H]2CCCCN21` (relative stereo)?
pKa (physchem [1]): 9.2; chromatographic logD (physchem [2]): 2

For `COc1cccc(-c2cccc(C3(C)N=C(N)CCO3)c2)c1` (stereo not given), which Papp A→B at 10 µM (in vitro) is on record?
Its Papp A→B at 10 µM is 13 ×10⁻⁶ cm/s.

And the pKa (physchem [1])?
Its pKa is 9.3.

And the chromatographic logD (physchem [2])?
Its chromatographic logD is 2.5.

For `CC1(c2cccc(-c3cccnc3)c2)N=C(N)c2ccccc2O1` (stereo not given), which Papp A→B at 10 µM (in vitro) is on record?
Its Papp A→B at 10 µM is 17 ×10⁻⁶ cm/s.

And the pKa (physchem [1])?
Its pKa is 8.2.

And the chromatographic logD (physchem [2])?
The chromatographic logD was 1.8.

With `COc1ccc(C2(c3cccc(-c4cccnc4)c3)CC(OC)C(N)=N2)cc1` (stereo in doubt; form 4) as the compound, how does the chromatographic logD (physchem [2]) read?
The chromatographic logD was 1.8.

With `COc1cccc(-c2cccc(C3(C)COCC(N)=N3)c2)c1` (stereo not given) as the compound, how does the Papp A→B at 10 µM (in vitro) read?
The Papp A→B at 10 µM was 20 ×10⁻⁶ cm/s.

What about the pKa (physchem [1]) of the same compound?
The pKa was 9.8.

What about the chromatographic logD (physchem [2]) of the same compound?
Its chromatographic logD is 2.1.

For `COc1cccc(-c2cccc(C3(C)CCSC(N)=N3)c2)c1` (stereo not given), which Kp uu at […] (in vivo [7]) is on record?
The Kp uu at […] was 0.64.

And the fraction unbound at […] (in vivo [8])?
The fraction unbound at […] was 0.07.

And the fraction unbound at […] (in vivo [9])?
The fraction unbound at […] was 0.005.

What about the Kp at […] (in vivo [10]) of the same compound?
The Kp at […] was 8.9.

And the Papp A→B at 10 µM (in vitro)?
Its Papp A→B at 10 µM is 72 ×10⁻⁶ cm/s.

And the pKa (physchem [1])?
Its pKa is 7.

What about the chromatographic logD (physchem [2]) of the same compound?
The chromatographic logD was 2.5.

What does the source list for `CC1(c2cccc(-c3cccnc3)c2)N=C(N)c2c(F)cccc2O1` (stereo not given)?
Papp A→B at 10 µM (in vitro): 23 ×10⁻⁶ cm/s; pKa (physchem [1]): 7; chromatographic logD (physchem [2]): 2.3

With `CCC1(c2cccc(-c3cncnc3)c2)N=C(N)c2ccccc2O1` (stereo not given) as the compound, how does the pKa (physchem [1]) read?
The pKa was 8.4.

What about the chromatographic logD (physchem [2]) of the same compound?
The chromatographic logD was 1.8.

For `CC1(c2cccc(-c3cncnc3)c2)N=C(N)CCS1` (stereo not given), which Kp uu at […] (in vivo [3]) is on record?
The Kp uu at […] was 0.27.

And the fraction unbound at […] (in vivo [4])?
The fraction unbound at […] was 0.89.

And the fraction unbound at […] (in vivo [5])?
Its fraction unbound at […] is 0.074.

What about the Kp at […] (in vivo [6]) of the same compound?
The Kp at […] was 1.4.

What about the Papp A→B at 10 µM (in vitro) of the same compound?
The Papp A→B at 10 µM was 21 ×10⁻⁶ cm/s.

What about the pKa (physchem [1]) of the same compound?
Its pKa is 9.1.

What about the chromatographic logD (physchem [2]) of the same compound?
The chromatographic logD was < 0.

Which results are given for `COc1cccc(-c2cccc(C3(C)N=C(N)CS3)c2)c1` (stereo not given)?
Papp A→B at 10 µM (in vitro): 15 ×10⁻⁶ cm/s; pKa (physchem [1]): 6.9; chromatographic logD (physchem [2]): 3.6

With `COc1cccc(-c2cccc(C3(c4ccncc4)N=C(N)CS3)c2)c1` (stereo not given) as the compound, how does the pKa (physchem [1]) read?
The pKa was 5.4.

With `COc1ccc(C2(c3cccc(-c4cncnc4)c3)N=C(N)n3nc(C)cc32)cc1` (stereo not given) as the compound, how does the Papp A→B at 10 µM (in vitro) read?
The Papp A→B at 10 µM was 30 ×10⁻⁶ cm/s.

What about the pKa (physchem [1]) of the same compound?
The pKa was 5.4.

What about the chromatographic logD (physchem [2]) of the same compound?
The chromatographic logD was 2.3.

Which Papp A→B at 10 µM (in vitro) does the source give for `CC1(c2cccc(-c3cccc(Cl)c3)c2)N=C(N)CCO1` (stereo not given) here?
Its Papp A→B at 10 µM is 2.1 ×10⁻⁶ cm/s.

And the pKa (physchem [1])?
Its pKa is 9.3.

What about the chromatographic logD (physchem [2]) of the same compound?
Its chromatographic logD is 3.3.

For `COc1ccc(C2(c3cccc(-c4cncnc4)c3)N=C(N)c3nc(C)sc32)cc1` (stereo not given), which Kp uu at […] (in vivo [7]) is on record?
Its Kp uu at […] is 0.04.

What about the fraction unbound at […] (in vivo [8]) of the same compound?
Its fraction unbound at […] is 0.1.

And the fraction unbound at […] (in vivo [9])?
The fraction unbound at […] was 0.02.

And the Kp at […] (in vivo [10])?
Its Kp at […] is 0.2.

And the Papp A→B at 10 µM (in vitro)?
Its Papp A→B at 10 µM is 18 ×10⁻⁶ cm/s.

And the pKa (physchem [1])?
Its pKa is 8.

What about the chromatographic logD (physchem [2]) of the same compound?
The chromatographic logD was 2.
